The source made the active and inactive calls. The calls are words filed in the database; no cut-off is given here.
Experiments:
Escherichia coli [1] = experiment: Induction of Cu(2)-mediated pBR322 DNA cleavage assessed as conversion of supercoiled to relaxed open circle at 50 to 300 uM by agarose gel electrophoresis
Escherichia coli [2] = experiment: Induction of Cu(2)-mediated pBR322 DNA cleavage assessed as conversion of supercoiled to relaxed open circle at 300 uM by agarose gel electrophoresis in presence of potassium iodide
Escherichia coli [3] = experiment: Induction of Cu(2)-mediated pBR322 DNA cleavage assessed as conversion of supercoiled to relaxed open circle at 300 uM by agarose gel electrophoresis in presence of superoxide dismutase
Escherichia coli [4] = experiment: Induction of Cu(2)-mediated pBR322 DNA cleavage assessed as conversion of supercoiled to relaxed open circle at 300 uM by agarose gel electrophoresis in presence of catalase

SMILES | Activity (Escherichia coli [1]) | Activity (Escherichia coli [2]) | Activity (Escherichia coli [3]) | Activity (Escherichia coli [4])
C=C(C)CC[C@@H](C[C@@H]1C[C@]2(CC=C(C)C)C(=O)[C@@](C(=O)c3ccc(O)c(O)c3)(C(=O)C3=C2O[C@@H](C(C)(C)O)C3)C1(C)C)C(=C)C | inactive | – | – | –
CC(C)=CC[C@]12C[C@H](O)C(C)(C)O[C@@H](C(C)(C)O)C[C@@](O)(C(=O)C(C(=O)C(C)C)=C1O)C2=O | Active | Active | Active | Active
C=C(C)CC[C@@H](C[C@H]1C[C@@]2(CC=C(C)C)C(=O)C(CC=C(C)C)=C(O)[C@@](C(=O)c3ccc(O)c(O)c3)(C2=O)C1(C)C)C(=C)C (stereo in doubt; 2) | – | Active | Active | Active
C=C(C)CC[C@@H](C[C@H]1C[C@@]2(CC=C(C)C)C(=O)C(CC=C(C)C)=C(O)[C@@](C(=O)c3ccc(O)c(O)c3)(C2=O)C1(C)C)C(=C)C (stereo in doubt; 2a) | – | Active | Active | Active

Source: ChEMBL document CHEMBL1144704, “Phloroglucinols with prooxidant activity from Garcinia subelliptica” (J Nat Prod, 2008)
